# Measured values reported in patent US11285125B2, “Oxidative retinal diseases” (priority 2011, dated 2022).
# Like-named read-outs stand apart in the source and are kept apart here.
# Legend:
# [1] = test system: coq null mutants (Q-less yeast); conditions: for viability of coq null mutants after fatty acid treatment: 200 μM fatty acid, plate dilution assay; for viability of cells by quantitative colony counting: colony counting at 1, 2 and 4 h
# Procedure: Yeast coq3, coq7 and coq9 null mutants were prepared in the W303 yeast genetic background (WT). […] Cells were washed twice with sterile water and resuspended in phosphate buffer (0.10 M sodium phosphate, pH 6.2, 0.2% dextrose) to an OD600 nm=0.2. Samples were removed and 1:5 serial dilutions starting at 0.20 OD/ml were plated on YPD plate medium, to provide a zero time untreated control (shown in top left panel). The designated fatty acids were added to 200 μM final concentration to 20 ml of yeast in phosphate buffer. At 2 h, 4 h, and 16 h samples were removed, 1:5 serial dilutions prepared, and spotted onto YPD plate medium. Pictures were taken after 2 days of growth at 30° C. This panel is representative of two independent assays, performed on different days.
# The fatty acid sensitive assay was performed as described in FIG. 6-1, except that 100 μl aliquots were removed at 1, 2, and 4 h and, following dilution, spread onto YPD plates. Pictures were taken after 2 to 2.5 days, and the number of colonies counted. Yeast strains include Wild type (circles), atp2 (triangles), or coq3 (squares); Fatty acid treatments include oleic C18:1 (solid line), linolenic, C18:3, n-3 (dashed line) or 11,11,14,14-D4-linolenic, C18:3, n-3, (dotted line).
# A plate dilution assay can be used to assess PUFA sensitivity. This assay can be performed by spotting serial five-fold dilutions of aliquots onto YPD plate media (FIG. 3). The sensitivity of the different strains can be observed by visual inspection of the density of cells in each spot.
# [2] = Rate of oxidation of mixtures of LA and D2-LA in chlorobenzene; type: physicochemical
# Procedure: FIG. 8. Dependence of the rate of oxidation of the mixture of LA and D2-LA in chlorobenzene solution on mixture composition. Conditions: [LA]+[11,11-d2-LA]=0.775 M; [AMVN]=0.0217 M; 37° C. RIN=(1.10±0.08)×10^−7 M/sec.
# To simulate the likely in vivo conditions, the kinetics of the oxidation of the mixtures of D2-LA and LA were studied (FIG. 8). In the experiments, the concentration of LA plus 11,11-d2-LA was 0.775 M; the concentration of AMVN was 0.0217 M; and the reactions were carried out at 37° C. The results afforded an RIN of 1.10±0.08×10^−7 M/sec.
# [3] = Kinetics of O2 consumption during non-enzymatic chain oxidation in chlorobenzene initiated by AMVN; type: physicochemical; conditions: for rate of oxidation, ROX: 0.71 M in chlorobenzene, 40 mM AMVN, 37° C.
# Procedure: FIG. 7. Kinetics of O2 consumption accompanied the oxidation of 0.71 M LA (plots 1 and 2) and 0.71 M D2-LA (plot 3) in chlorobenzene initiated by 40 mM AMVN at 37° C. Plot 2-0.23 mM HPMC was added to 0.71 M LA.
# The kinetics of oxygen consumption during the oxidation of LA and D2-LA was studied with a glass capillary microvolumeter (FIG. 7). The rate of oxidation, ROX, was measured as a slope of [O2] traces. The rate of initiation, RIN, was determined by the inhibitor method with HPMC (“6-hydroxy-2,2,5,7,8-pentamethylbenzochroman”) as a reference inhibitor. RIN was calculated from the induction period of inhibited oxidation, tIND: RIN=2·[HPMC]/tIND. […] When the process was inhibited by 0.23 mM chain-breaking antioxidant HPMC, the duration of the induction period, tIND, was about 48 min, with the RIN value of around 0.16×10^−6 M/s. […] The latter precludes a direct determination of RIN. […] An estimated kinetic isotope effect (“KIE”), from comparison of ROX for LA and D2-LA, was around 6.1×10^−6/0.18×10^−6≈35. A similar KIE was determined during the oxidation of LA and 11,11-d2-LA in Triton X-100 aqueous micelles (data not shown). For comparative purposes, the theoretical KIE is 6.9 at 25° C. See Carpenter, “Determination of Organic Reaction Mechanisms” (John Wiley & Sons, 1984), p. 89.
# Wild-type yeast cells = assay: Copper-stress lipid peroxidation assay (C11-Bodipy 581/591 fluorescence); type: cell-based, S. cerevisiae; conditions: 200 μM fatty acid 2 hours, then 50 μM CuSO4 60 min
# Procedure: Wild-type yeast cells were treated as described above except the yeast were treated with 200 μM of the designated fatty acid for 2 hours, washed with sterile water, and were either not treated (triangles) or treated with 50 μM CuSO4 (squares) at room temperature. After 60 min of copper treatment cells were treated with 8 μM C11-Bodipy 581/591 for 30 min at room temperature. Four 100 μl aliquots were plated in a 96-well plate and the fluorescence was measured.
# [4] = test system: coq null mutants (Q-less yeast); conditions: cited from earlier work; for sensitivity of Q-less yeast to fatty acid treatment: compared with wild-type parental strain
# [5] = 70 kg person; cited from earlier work
# wild-type yeast (W303) = conditions: four hour treatment, strain W303-1B background; cited from earlier work
# Procedure for Q-less coq3 yeast: Wild-type, yeast Q-less coq3, or respiratory deficient con 1 null mutants were incubated in the presence of 200 μM of LA and D2-LA at different ratios of PUFAs. Serial dilutions (1:5) starting at 0.2 OD/ml were spotted on YPD solid plate medium. A zero-time untreated control is shown on the top left. Growth at 30° C.
# Wild-type, yeast Q-less coq3, or respiratory deficient con 1 null mutants were incubated in the presence of 200 μM of ALA and D4-LA at different ratios of PUFAs. Serial dilutions (1:5) starting at 0.2 OD/ml were spotted on YPD solid plate medium. Growth at 30° C.
# Wild-type, yeast Q-less coq3, or respiratory deficient cor1 null mutants were incubated in the presence of 200 μM of LA and D2-LA at different ratios of PUFAs, as indicated in FIG. 9. Serial dilutions (1:5) starting at 0.20D/ml were spotted on YPD solid plate medium. […] Growth was at 30° C.
# The experimental protocol described for Example 14 was also reproduced in vivo using Q-less coq3 yeast strains (FIG. 10) and different ratios of ALA to D4-ALA. Wild-type, yeast Q-less coq3, or respiratory deficient cor1 null mutants were incubated in the presence of 200 μM of ALA and D4-Lnn (Linolenic acid) at different ratios of PUFAs, as indicated in FIG. 10. Serial dilutions (1:5) starting at 0.2 OD/ml were spotted on YPD solid plate medium. Growth was at 30° C.
smiles,measurement,setting,value
"[2H]C(/C=C\CCCCC)/C=C\CCCCCCCC(=O)O (stereo not shown) [11,11-D,H-LA, [11-^2H]-linoleic acid]",loss in cell viability,"Q-less coq3 yeast; after 3 hours of treatment, data not shown",no detectable loss in cell viability
"[2H]C([2H])(/C=C\C/C=C\CC)C/C=C\CCCCCCC(=O)O [11, 11-D2-linolenic acid, 11,11-Dideutero-cis,cis,cis-octadeca-8,12,15-trienoic acid]",viability of coq null mutants after fatty acid treatment,[1],comparable protection
"[2H]C([2H])(/C=C\CC)/C=C\CC/C=C\CCCCCCC(=O)O [14, 14-D2-linolenic acid, 14,14-Dideutero-cis,cis,cis-octadeca-8,12,15-trienoic acid]",viability of coq null mutants after fatty acid treatment,[1],comparable protection
"[2H]C([2H])(/C=C\CCCCC)/C=C\CCCCCCCC(=O)O [D2-LA, 11,11-Dideutero-cis,cis-9,12-Octadecadienoic acid]",effect in mixture with non-deuterated methyl linoleate,[2]; data not shown,qualititatively similar effect
same,effect of D2-LA on autoxidation of non-deuterated LA,[2]; mixtures with LA,‘protects’ the non-deuterated LA against autoxidation
same,minimal amount of D2-LA to cancel the toxicity of LA,Q-less coq3 yeast; 200 μM total LA and D2-LA at different ratios,10-15%
same,"length of the kinetic chain, ν=ROX/RIN",[3],≈ 1.1
same,"rate of oxidation, ROX",[3],1.8e-07 M/s
same,effect of addition of HPMC on oxidation,[3]; data not shown,did not result in the decrease in ROX and the appearance of any detectable induction period
same,estimated kinetic isotope effect (KIE),[3]; from comparison of ROX for LA and D2-LA,≈ 35
same,levels of lipid peroxidation,Wild-type yeast cells,lower levels of lipid peroxidation similar to yeast not treated with PUFA
"[2H]C([2H])(/C=C\CC)/C=C\C([2H])([2H])/C=C\CCCCCCCC(=O)O [D4-ALA, 11,11,14,14-Tetradeutero-cis,cis,cis-9,12,15-Octadecatrienoic acid]",minimal amount of deuterated Lnn to cancel the toxicity of ALA,Q-less coq3 yeast; 200 μM total ALA and D4-Lnn at different ratios,15-20%
same,viability of coq null mutants after fatty acid treatment,[1]; listed as D4-linolenic acid,resistant to PUFA-mediated cell killing
same,viability of cells by quantitative colony counting,[1],similar
"CCCCC/C=C\C/C=C\CCCCCCCC(=O)O [LA, cis,cis-9,12-Octadecadienoic acid, reference compound]","length of the kinetic chain, ν=ROX/RIN",[3],38±3
same,"rate of oxidation, ROX",[3],6.1e-06 M/s
same,"rate of initiation, RIN","[3]; calculated from induction period, RIN=2·[HPMC]/tIND",around 0.16×10^−6 M/s
same,calculated oxidizability,[3]; n=5,0.0215±0.008 M^−0.5 s^−0.5
CCCCC/C=C\C/C=C\C/C=C\C/C=C\CCCC(=O)O [arachidonic acid],sensitivity of Q-less yeast to fatty acid treatment,[4],hypersensitive
[2H]O[2H] [heavy water],amount that might be drunk without serious consequences,[5],4.8 L
"CC/C=C\C/C=C\C/C=C\CCCCCCCC(=O)O [linolenic acid, cis,cis,cis-9,12,15-Octadecatrienoic acid]",wild-type cells that remain viable,wild-type yeast (W303),70%
same,viability of coq null mutants after fatty acid treatment,[1],dramatic loss of viability
same,"viable Q-less (coq2, coq3, and coq5) yeast mutants",[4]; four hour treatment,Less than 1%
"CCCCCCCC/C=C\CCCCCCCC(=O)O [oleic acid, reference compound]",viability of cells by quantitative colony counting,[1],similar
same,sensitivity of Q-less yeast to fatty acid treatment,[4],behave the same as the wild-type parental strain
